From ChEMBL document CHEMBL3351527, “Multitarget drug design strategy: quinone-tacrine hybrids designed to block amyloid-β aggregation and to exert anticholinesterase and antioxidant effects” (J Med Chem, 2014)
Calls of active or inactive are those of the source. No cut-off for these calls is given here.

Legend:
[1] = Cytotoxicity against rat CGN cells assessed as reduction in cell viability after 24 hrs by MTT assay; type: cell-based
[2] = Cytotoxicity against mouse Neuro2a cells assessed as reduction in cell viability after 24 hrs by MTT assay; type: cell-based; conditions: n2a
[3] = molecular target: Cholinesterase (Homo sapiens, UniProt P06276)
Cholinesterase, sequence (P06276 whole entry): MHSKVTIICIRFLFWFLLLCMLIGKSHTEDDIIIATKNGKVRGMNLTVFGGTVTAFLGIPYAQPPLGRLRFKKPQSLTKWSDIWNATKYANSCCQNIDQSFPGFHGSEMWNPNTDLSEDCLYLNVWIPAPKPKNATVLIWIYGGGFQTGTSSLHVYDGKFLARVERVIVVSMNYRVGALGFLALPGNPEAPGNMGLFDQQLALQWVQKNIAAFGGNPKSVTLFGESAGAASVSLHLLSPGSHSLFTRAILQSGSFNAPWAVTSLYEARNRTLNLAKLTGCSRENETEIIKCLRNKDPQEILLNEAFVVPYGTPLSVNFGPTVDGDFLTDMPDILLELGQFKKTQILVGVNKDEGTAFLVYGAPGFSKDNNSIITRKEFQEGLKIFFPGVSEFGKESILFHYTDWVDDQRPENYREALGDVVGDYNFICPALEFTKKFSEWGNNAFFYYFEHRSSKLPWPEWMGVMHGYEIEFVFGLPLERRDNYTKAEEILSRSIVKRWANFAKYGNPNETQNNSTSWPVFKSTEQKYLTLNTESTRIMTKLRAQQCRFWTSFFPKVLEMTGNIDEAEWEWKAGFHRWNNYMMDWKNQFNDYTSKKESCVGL
Description: Inhibition of human plasmatic BChE after 5 mins by Ellman method

[4] = molecular target: Acetylcholinesterase (Homo sapiens, UniProt P22303)
Acetylcholinesterase, sequence (P22303 whole entry): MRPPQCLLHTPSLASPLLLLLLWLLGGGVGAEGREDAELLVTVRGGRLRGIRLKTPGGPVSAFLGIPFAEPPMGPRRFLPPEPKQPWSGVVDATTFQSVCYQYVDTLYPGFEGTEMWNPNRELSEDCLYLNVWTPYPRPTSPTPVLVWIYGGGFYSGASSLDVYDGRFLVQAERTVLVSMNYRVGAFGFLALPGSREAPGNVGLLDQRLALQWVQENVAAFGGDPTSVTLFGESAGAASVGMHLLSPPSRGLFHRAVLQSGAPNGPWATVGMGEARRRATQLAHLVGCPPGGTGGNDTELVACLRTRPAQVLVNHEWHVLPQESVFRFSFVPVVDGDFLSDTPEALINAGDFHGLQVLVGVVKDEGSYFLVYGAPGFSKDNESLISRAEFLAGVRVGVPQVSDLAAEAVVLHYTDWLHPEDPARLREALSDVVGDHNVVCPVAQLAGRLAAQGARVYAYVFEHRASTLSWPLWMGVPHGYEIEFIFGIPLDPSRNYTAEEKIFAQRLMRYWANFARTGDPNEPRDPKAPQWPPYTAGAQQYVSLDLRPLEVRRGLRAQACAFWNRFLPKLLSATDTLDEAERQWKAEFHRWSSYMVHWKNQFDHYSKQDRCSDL
Description: Inhibition of human recombinant AChE after 5 mins by Ellman method

[5] = system: T67; assay: Antioxidant activity in tert-butyl hydroperoxide-stimulated human T67 cells assessed as reduction in intracellular ROS production at 10 uM after 24 hrs by spectrophotometry; type: functional, cell-based
[6] = Cytotoxicity against mouse Neuro2a cells assessed as cell viability at 12.5 uM after 24 hrs by MTT assay relative to control; type: cell-based, N2a; conditions: read-out: Activity
[7] = system: N2a; assay: Neuroprotective effect in amyloid beta-stimulated mouse Neuro2a cells assessed as increase in cell viability at 12.5 uM after 24 hrs by MTT assay; type: functional, cell-based
[8] = system: T67; assay: Antioxidant activity in tert-butyl hydroperoxide-stimulated human T67 cells assessed as reduction in intracellular ROS production at 10 uM after 24 hrs by spectrophotometry in presence of sulforaphane; type: functional, cell-based
[9] = system: Rattus norvegicus; assay: Ex vivo inhibition of AChE in ip dosed Wistar rat telencephalon measured 1 hr post dose by colorimetric method; type: functional, organism-based
[10] = Cytotoxicity against rat CGN cells assessed as cell viability at 12.5 uM after 24 hrs by MTT assay relative to control; type: cell-based; conditions: read-out: Activity
[11] = system: Rattus norvegicus; assay: Ex vivo inhibition of AChE in Wistar rat cerebellum at 10 or 50 umol/kg, ip measured 1 hr post dose by colorimetric method; type: functional, organism-based
[12] = system: HepG2; assay: Hepatotoxicity in human HepG2 cells assessed as reduction in cell viability at 12.5 to 50 uM after 24 hrs by MTT assay; type: toxicity, cell-based; conditions: hepg2, 24 h

Structure (SMILES)	Activity [1]	Activity [2]	IC50 [3] [nM]	IC50 [4] [nM]	Activity [5]	viability at 24 h, 12.5 µM [6] [%]	Activity [7]	Activity [8]	inhibition [9]	viability at 24 h, 12.5 µM [10] [%]	inhibition [11]	Activity [12]
COc1ccc2nc3c(c(NCCNC4=CC(=O)c5ccccc5C4=O)c2c1)CCCC3	Toxic	Toxic	501	2530	–	–	–	–	–	–	–	–
O=C1C=C(NCCCNc2c3c(nc4ccccc24)CCCC3)C(=O)c2ccccc21	Toxic	Non-toxic	19.1	53.7	–	–	–	–	–	–	–	–
O=C1C=C(NCCCNc2c3c(nc4cc(Cl)ccc24)CCCC3)C(=O)c2ccccc21	Toxic	Non-toxic	197	5.4	–	–	–	–	–	–	–	–
O=C1C(Cl)=C(NCCNc2c3c(nc4cc(Cl)ccc24)CCCC3)C(=O)c2ccccc21	Toxic	Toxic	287	3.21	–	–	–	–	–	–	–	–
O=C1C(Cl)=C(NCCCNc2c3c(nc4cc(Cl)ccc24)CCCC3)C(=O)c2ccccc21	Toxic	Toxic	234	8.94	–	–	–	–	–	–	–	–
O=C1C(Cl)=C(NCCCNc2c3c(nc4ccccc24)CCCC3)C(=O)c2ccccc21	Toxic	Toxic	47.8	38	–	–	–	–	–	–	–	–
O=C1C(NCCCNc2c3c(nc4ccccc24)CCCC3)=CC(=O)c2c(O)cccc21	Toxic	Toxic	14.5	103	–	–	–	–	–	–	–	–
COc1ccc2nc3c(c(NCCCNC4=C(Cl)C(=O)c5ccccc5C4=O)c2c1)CCCC3	Toxic	Toxic	742	809	–	–	–	–	–	–	–	–
O=C1C=C(NCCNc2c3c(nc4cc(Cl)ccc24)CCCC3)C(=O)c2ccccc21	Toxic	Non-toxic	256	1.93	inactive	105	Active	Active	Dose-dependent effect	75	inactive	Non-toxic
COc1ccc2nc3c(c(NCCCNC4=CC(=O)c5ccccc5C4=O)c2c1)CCCC3	Toxic	Non-toxic	635	6150	–	–	–	–	–	–	–	–
O=C1C(NCCNc2c3c(nc4cc(Cl)ccc24)CCCC3)=CC(=O)c2c(O)cccc21	Toxic	Toxic	542	0.72	inactive	85.6	Active	Active	Dose-dependent effect	73.5	inactive	–
O=C1C(NCCCNc2c3c(nc4cc(Cl)ccc24)CCCC3)=CC(=O)c2c(O)cccc21	Toxic	Toxic	258	9.24	–	–	–	–	–	–	–	–
O=C1C=C(NCCNc2c3c(nc4ccccc24)CCCC3)C(=O)c2ccccc21	Toxic	Non-toxic	5.45	14.3	–	–	–	–	–	–	–	–
O=C1C(Cl)=C(NCCNc2c3c(nc4ccccc24)CCCC3)C(=O)c2ccccc21	Toxic	Toxic	96.1	96.1	–	–	–	–	–	–	–	–
COc1ccc2nc3c(c(NCCNC4=C(Cl)C(=O)c5ccccc5C4=O)c2c1)CCCC3	Toxic	Toxic	970	1370	–	–	–	–	–	–	–	–
COc1ccc2nc3c(c(NCCNC4=CC(=O)c5c(O)cccc5C4=O)c2c1)CCCC3	Toxic	Toxic	1280	651	–	–	–	–	–	–	–	–
O=C1C(NCCNc2c3c(nc4ccccc24)CCCC3)=CC(=O)c2c(O)cccc21	Toxic	Toxic	41.4	24.7	–	–	–	–	–	–	–	–
COc1ccc2nc3c(c(NCCCNC4=CC(=O)c5c(O)cccc5C4=O)c2c1)CCCC3	Toxic	Toxic	329	348	–	–	–	–	–	–	–	–
